Assay type in all cases: in vivo
Test [1] deals with C57B/6 male mice. Briefly: Amphetamine-induced stereotypy (open field locomotion). To be noted: 30 μg/kg PO, time post-amphetamine −15 min, amphetamine 8 mg/kg.
In the next test the test system is Male Sprague-Dawley rats. Briefly: Pre-pulse inhibition of the startle response (PPI) disrupted by psychostimulants. How it is done: Male Sprague-Dawley rats were treated with Drug 1 (IP) followed 20 minutes later by Drug 2 (IP or SC as indicated in the methods). Ten minutes following administration of Drug 2 (except in the case of apomorphine where animals were immediately tested post-apomorphine), rats were placed in the startle chamber and allowed 5 minutes to acclimate with 65-dB background white noise. The acclimation period was followed by a ˜15 minute test session during which time rats were presented with 40 ms 120 dB startle pulses alone or preceded 100 ms by a pre-pulse 3, 6, or 12 dB above background. These four types of active stimuli were presented in pseudorandom order along with no-stimulation trials to assess baseline activity throughout testing. An average of 20 s separated each trial type. The maximum startle magnitude was measured for every trial type. PPI for each animal was calculated as the percentage startle magnitude to the pre-pulse+pulse or no-stimulation trials relative to the pulse-alone startle magnitude. Amphetamine induced stereotypy. […] Locomotion was separated into “fine movements” (indicative of stereotypy) and “ambulations” (indicative of hyperactivity). Prepulse inhibition. […] Each rat was individually placed in the startle chamber 10 minutes post-phencyclidine or post-amphetamine or post-vehicle. Testing was carried out using the SR-Lab Startle Response system by San Diego Instruments. Each rat was allowed to acclimate for a 5 minute period with a 65-dB background noise continuously present throughout the session. […] A sensor in the chamber recorded the startle responses following all stimuli presented.

Test [2] has as its system C57B/6 male mice. Briefly: Amphetamine-induced stereotypy (open field locomotion). To be noted: for AMBULATIONS / FINE MOVEMENTS: 30 μg/kg PO, amphetamine 8 mg/kg; for FINE MOVEMENTS: scored 60 min post-amphetamine. As to the method: C57B/6 male mice were placed in an open field apparatus and allowed to habituate for 15-30 minutes. The compound of the invention (at 30 μg/kg) was administered PO at 0, +15, or +30 minutes relative to amphetamine (8 mg/kg) administration, and locomotor behavior was scored for an additional 60 minutes post-amphetamine. Amphetamine was administered IP. Locomotion was separated into “fine movements” (indicative of stereotypy) and “ambulations” (indicative of hyperactivity). Amphetamine induced stereotypy. […] Locomotion was separated into “fine movements” (indicative of stereotypy) and “ambulations” (indicative of hyperactivity). Prepulse inhibition. Sprague Dawley male rats (˜200 g-300 g) were used (n=8/group). […] Each rat was individually placed in the startle chamber 10 minutes post-phencyclidine or post-amphetamine or post-vehicle. Testing was carried out using the SR-Lab Startle Response system by San Diego Instruments. Each rat was allowed to acclimate for a 5 minute period with a 65-dB background noise continuously present throughout the session. […] A sensor in the chamber recorded the startle responses following all stimuli presented.

The values below come from patent US20110269805A1, “METHOD OF TREATING SENSORIMOTOR DISORDERS WITH 4-(1-(2,3-DIMETHYLPHENYL)ETHYL)-1H-IMIDAZOLE-2(3H)-THIONE” (priority 2007, published 2011).

The structures appear in SMILES notation. “Also recorded” adds a separate entry of the source.

For the compound `Cc1cccc(C(C)c2c[nH]c(=S)[nH]2)c1C` (stereo not shown) [AGN-203818, 4-(1-(2,3-dimethylphenyl)ethyl)-1H-imidazole-2(3H)-thione], the AMBULATIONS with C57B/6 male mice [1] (ambulations indicative of hyperactivity) amounted to 4756.3 ± 1208.8; in the test on C57B/6 male mice [2] (time post-amphetamine 0 min) it was 7337 ± 890.0; in the test on C57B/6 male mice [2] (time post-amphetamine 15 min), 5747.3 ± 874.4; in the test with C57B/6 male mice [2] (time post-amphetamine 30 min), 7201.2 ± 1669.4. Further, the “FINE MOVEMENTS” value with C57B/6 male mice [1] (scored 60 min post-amphetamine, fine movements indicative of stereotypy) is 904.5 ± 107.0^⋄; in the test on C57B/6 male mice [2] (time post-amphetamine 0 min), 762.2 ± 89.4^⋄; with C57B/6 male mice [2] (time post-amphetamine 15 min), 1066.5 ± 37.8^⋄; in the test on C57B/6 male mice [2] (time post-amphetamine 30 min) it was 1297.8 ± 85.3^⋄. For the same compound, the “% PPI PP3” value in the test with Male Sprague-Dawley rats (Compound 0.01 mg/kg as Drug 1, Drug 2 PCP (2 mg/kg, s.c.), pre-pulse 3 dB) is given as 20.3 ± 10.6%; with Male Sprague-Dawley rats (Compound 0.03 mg/kg as Drug 1, Drug 2 PCP (2 mg/kg, s.c.), pre-pulse 3 dB), 30.9 ± 7.4%; with Male Sprague-Dawley rats (Compound 0.1 mg/kg as Drug 1, Drug 2 PCP (2 mg/kg, s.c.), pre-pulse 3 dB), 35.8 ± 7.0%; in the test on Male Sprague-Dawley rats (Compound 1 mg/kg as Drug 1, Drug 2 Amphetamine (4 mg/kg, s.c.), pre-pulse 3 dB), 49.6 ± 5.8%^⋄; in the test on Male Sprague-Dawley rats (Compound 1 mg/kg as Drug 1, Drug 2 PCP (2 mg/kg, s.c.), pre-pulse 3 dB) it was 48.8 ± 8.2%^⋄; in the test with Male Sprague-Dawley rats (Compound as Drug 1 (dose not given), Drug 2 Vehicle, pre-pulse 3 dB) it was 60.4 ± 4.8%^⋄. Further, the “% PPI PP6” value in the test on Male Sprague-Dawley rats (Compound 0.01 mg/kg as Drug 1, Drug 2 PCP (2 mg/kg, s.c.), pre-pulse 6 dB) is recorded as 21.6 ± 10.7%; with Male Sprague-Dawley rats (Compound 0.03 mg/kg as Drug 1, Drug 2 PCP (2 mg/kg, s.c.), pre-pulse 6 dB), 46.2 ± 4.2%^⋄; with Male Sprague-Dawley rats (Compound 0.1 mg/kg as Drug 1, Drug 2 PCP (2 mg/kg, s.c.), pre-pulse 6 dB), 39.6 ± 10.7%; in the test with Male Sprague-Dawley rats (Compound 1 mg/kg as Drug 1, Drug 2 Amphetamine (4 mg/kg, s.c.), pre-pulse 6 dB) it was 52.9 ± 4.3%^⋄; with Male Sprague-Dawley rats (Compound 1 mg/kg as Drug 1, Drug 2 PCP (2 mg/kg, s.c.), pre-pulse 6 dB), 45.0 ± 12.7%; with Male Sprague-Dawley rats (Compound as Drug 1 (dose not given), Drug 2 Vehicle, pre-pulse 6 dB), 59.8 ± 2.2%^⋄. Moreover, the “% PPI PP12” value with Male Sprague-Dawley rats (Compound 0.01 mg/kg as Drug 1, Drug 2 PCP (2 mg/kg, s.c.), pre-pulse 12 dB) is recorded as 51.8 ± 5.6%; in the test with Male Sprague-Dawley rats (Compound 0.03 mg/kg as Drug 1, Drug 2 PCP (2 mg/kg, s.c.), pre-pulse 12 dB) it was 53.6 ± 4.2%; in the test on Male Sprague-Dawley rats (Compound 0.1 mg/kg as Drug 1, Drug 2 PCP (2 mg/kg, s.c.), pre-pulse 12 dB), 56.2 ± 5.6%^⋄; in the test with Male Sprague-Dawley rats (Compound 1 mg/kg as Drug 1, Drug 2 Amphetamine (4 mg/kg, s.c.), pre-pulse 12 dB), 65.7 ± 4.7%^⋄; with Male Sprague-Dawley rats (Compound as Drug 1 (dose not given), Drug 2 Vehicle, pre-pulse 12 dB) it was 75.5 ± 2.9%^⋄*. For the same compound, in the test on Male Sprague-Dawley rats (deficits induced by amphetamine or phencyclidine), the “effect on PPI deficits induced by amphetamine or phencyclidine (in words)” value was “significantly rescue deficits in sensorimotor integration”. The “oral activity (in words)” value in the test on C57B/6 male mice [2] (administered PO) was “orally active”. In the test with C57B/6 male mice [2] (high-dose psychostimulant administration, listed as compound of the invention), the “effect on amphetamine-induced stereotypy (in words)” value is on record as “effectively inhibit stereotypy; also recorded: selectively decreased amphetamine-induced stereotypy”.

For the compound `Clc1cccc(Cl)c1N=C1NCCN1` [Clonidine, reference compound], the “% PPI PP3” value was found to be 31.0 ± 6.9% with Male Sprague-Dawley rats (Clonidine 30 ug/kg as Drug 1, Drug 2 Amphetamine (4 mg/kg, s.c.), pre-pulse 3 dB); 34.5 ± 8.2% with Male Sprague-Dawley rats (Clonidine 30 ug/kg as Drug 1, Drug 2 PCP (2 mg/kg, s.c.), pre-pulse 3 dB); 35.2 ± 15.7% with Male Sprague-Dawley rats (Clonidine 30 ug/kg as Drug 1, Drug 2 Vehicle, pre-pulse 3 dB above background). In addition, the “% PPI PP6” value in the test with Male Sprague-Dawley rats (Clonidine 30 ug/kg as Drug 1, Drug 2 Amphetamine (4 mg/kg, s.c.), pre-pulse 6 dB) was found to be 40.7 ± 6.0%; with Male Sprague-Dawley rats (Clonidine 30 ug/kg as Drug 1, Drug 2 PCP (2 mg/kg, s.c.), pre-pulse 6 dB), 55.1 ± 9.8%; with Male Sprague-Dawley rats (Clonidine 30 ug/kg as Drug 1, Drug 2 Vehicle, pre-pulse 6 dB above background), 60.8 ± 3.0%^⋄. The “% PPI PP12” value in the test with Male Sprague-Dawley rats (Clonidine 30 ug/kg as Drug 1, Drug 2 Amphetamine (4 mg/kg, s.c.), pre-pulse 12 dB) was determined as 53.5 ± 5.2%; in the test on Male Sprague-Dawley rats (Clonidine 30 ug/kg as Drug 1, Drug 2 PCP (2 mg/kg, s.c.), pre-pulse 12 dB), 63.7 ± 7.4%; in the test with Male Sprague-Dawley rats (Clonidine 30 ug/kg as Drug 1, Drug 2 Vehicle, pre-pulse 12 dB above background) it was 54.7 ± 8.0%.
